From ChEMBL document CHEMBL4706643 (J Med Chem, 2021)
pIC50: −log10 of the molar value.

test system: Hepatitis B virus; assay: Antiviral activity against HBV infected in human HepG2-NTCP cells assessed as reduction in HBeAg secretion cells inoculated with virus for 4 hrs at room temperature and 37 degree C for 24 hrs followed inoculum changed with PMM medium for every 2 days until day 5 post infection by ELISA; type: functional, organism-based

Structure (SMILES)	pIC50
CC[C@@H]1NC(=O)[C@H]([C@@H]2O[C@@H](Sc3cc(OC)cc(OCc4ccc(F)cc4)c3)C[C@H]2C)N(C)C(=O)[C@H](C(C)C)N(C)C(=O)[C@H](CC(C)C)N(C)C(=O)[C@H](CC(C)C)N(C)C(=O)[C@@H](C)NC(=O)[C@H](C)NC(=O)[C@H](CC(C)C)N(C)C(=O)[C@H](C(C)C)NC(=O)[C@H](CC(C)C)N(C)C(=O)CN(C)C1=O	6.67
CC[C@@H]1NC(=O)[C@H]([C@@H]2O[C@@H](Sc3ccc(Cl)c(OCc4ccccc4)c3)C[C@H]2C)N(C)C(=O)[C@H](C(C)C)N(C)C(=O)[C@H](CC(C)C)N(C)C(=O)[C@H](CC(C)C)N(C)C(=O)[C@@H](C)NC(=O)[C@H](C)NC(=O)[C@H](CC(C)C)N(C)C(=O)[C@H](C(C)C)NC(=O)[C@H](CC(C)C)N(C)C(=O)CN(C)C1=O	6.67
CC[C@@H]1NC(=O)[C@H]([C@@H]2O[C@@H](Sc3ccc(N4CCOCC4)cc3)C[C@H]2C)N(C)C(=O)[C@H](C(C)C)N(C)C(=O)[C@H](CC(C)C)N(C)C(=O)[C@H](CC(C)C)N(C)C(=O)[C@@H](C)NC(=O)[C@H](C)NC(=O)[C@H](CC(C)C)N(C)C(=O)[C@H](C(C)C)NC(=O)[C@H](CC(C)C)N(C)C(=O)CN(C)C1=O	5.90
CC[C@@H]1NC(=O)[C@H]([C@@H]2OC(C(C)=O)C[C@H]2C)N(C)C(=O)[C@H](C(C)C)N(C)C(=O)[C@H](CC(C)C)N(C)C(=O)[C@H](CC(C)C)N(C)C(=O)[C@@H](C)NC(=O)[C@H](C)NC(=O)[C@H](CC(C)C)N(C)C(=O)[C@H](C(C)C)NC(=O)[C@H](CC(C)C)N(C)C(=O)CN(C)C1=O (stereo partly drawn)	< 5.00
CC[C@@H]1NC(=O)[C@H]([C@@H]2OC(C(C)C)C[C@H]2C)N(C)C(=O)[C@H](C(C)C)N(C)C(=O)[C@H](CC(C)C)N(C)C(=O)[C@H](CC(C)C)N(C)C(=O)[C@@H](C)NC(=O)[C@H](C)NC(=O)[C@H](CC(C)C)N(C)C(=O)[C@H](C(C)C)NC(=O)[C@H](CC(C)C)N(C)C(=O)CN(C)C1=O (stereo partly drawn)	< 5.00
CC[C@@H]1NC(=O)[C@H]([C@@H]2O[C@@H](Sc3cccc(OCc4ccc(F)cc4Cl)c3)C[C@H]2C)N(C)C(=O)[C@H](C(C)C)N(C)C(=O)[C@H](CC(C)C)N(C)C(=O)[C@H](CC(C)C)N(C)C(=O)[C@@H](C)NC(=O)[C@H](C)NC(=O)[C@H](CC(C)C)N(C)C(=O)[C@H](C(C)C)NC(=O)[C@H](CC(C)C)N(C)C(=O)CN(C)C1=O	6.39
CC[C@@H]1NC(=O)[C@H]([C@@H]2O[C@@H](Sc3cccc(OCCc4ccccc4)c3)C[C@H]2C)N(C)C(=O)[C@H](C(C)C)N(C)C(=O)[C@H](CC(C)C)N(C)C(=O)[C@H](CC(C)C)N(C)C(=O)[C@@H](C)NC(=O)[C@H](C)NC(=O)[C@H](CC(C)C)N(C)C(=O)[C@H](C(C)C)NC(=O)[C@H](CC(C)C)N(C)C(=O)CN(C)C1=O	6.45
CCCOc1cccc(S[C@H]2C[C@@H](C)[C@H]([C@H]3C(=O)N[C@@H](CC)C(=O)N(C)CC(=O)N(C)[C@@H](CC(C)C)C(=O)N[C@@H](C(C)C)C(=O)N(C)[C@@H](CC(C)C)C(=O)N[C@@H](C)C(=O)N[C@H](C)C(=O)N(C)[C@@H](CC(C)C)C(=O)N(C)[C@@H](CC(C)C)C(=O)N(C)[C@@H](C(C)C)C(=O)N3C)O2)c1	6.65
CC[C@@H]1NC(=O)[C@H]([C@@H]2O[C@@H](Sc3cccc(OCc4ccc(=O)n(C)c4)c3)C[C@H]2C)N(C)C(=O)[C@H](C(C)C)N(C)C(=O)[C@H](CC(C)C)N(C)C(=O)[C@H](CC(C)C)N(C)C(=O)[C@@H](C)NC(=O)[C@H](C)NC(=O)[C@H](CC(C)C)N(C)C(=O)[C@H](C(C)C)NC(=O)[C@H](CC(C)C)N(C)C(=O)CN(C)C1=O	6.32

The remaining lines, values ahead:

pIC50	Structure (SMILES)
5.81	CC[C@@H]1NC(=O)[C@H]([C@@H]2O[C@@H](Sc3ccc(CN4CCN(C)CC4)cc3)C[C@H]2C)N(C)C(=O)[C@H](C(C)C)N(C)C(=O)[C@H](CC(C)C)N(C)C(=O)[C@H](CC(C)C)N(C)C(=O)[C@@H](C)NC(=O)[C@H](C)NC(=O)[C@H](CC(C)C)N(C)C(=O)[C@H](C(C)C)NC(=O)[C@H](CC(C)C)N(C)C(=O)CN(C)C1=O
6.17	CC[C@@H]1NC(=O)[C@H]([C@@H]2O[C@H](Oc3cccc(OCc4ccccc4)c3)C[C@H]2C)N(C)C(=O)[C@H](C(C)C)N(C)C(=O)[C@H](CC(C)C)N(C)C(=O)[C@H](CC(C)C)N(C)C(=O)[C@@H](C)NC(=O)[C@H](C)NC(=O)[C@H](CC(C)C)N(C)C(=O)[C@H](C(C)C)NC(=O)[C@H](CC(C)C)N(C)C(=O)CN(C)C1=O
6.69	CC[C@@H]1NC(=O)[C@H]([C@@H]2O[C@@H](Sc3cccc(N(C)CC)c3)C[C@H]2C)N(C)C(=O)[C@H](C(C)C)N(C)C(=O)[C@H](CC(C)C)N(C)C(=O)[C@H](CC(C)C)N(C)C(=O)[C@@H](C)NC(=O)[C@H](C)NC(=O)[C@H](CC(C)C)N(C)C(=O)[C@H](C(C)C)NC(=O)[C@H](CC(C)C)N(C)C(=O)CN(C)C1=O
5.66	CC[C@@H]1NC(=O)[C@H]([C@@H]2O[C@@H](Sc3c(OC)cccc3OC)C[C@H]2C)N(C)C(=O)[C@H](C(C)C)N(C)C(=O)[C@H](CC(C)C)N(C)C(=O)[C@H](CC(C)C)N(C)C(=O)[C@@H](C)NC(=O)[C@H](C)NC(=O)[C@H](CC(C)C)N(C)C(=O)[C@H](C(C)C)NC(=O)[C@H](CC(C)C)N(C)C(=O)CN(C)C1=O
6.57	CC[C@@H]1NC(=O)[C@H]([C@@H]2O[C@@H](Sc3cccc(OCc4cccnc4)c3)C[C@H]2C)N(C)C(=O)[C@H](C(C)C)N(C)C(=O)[C@H](CC(C)C)N(C)C(=O)[C@H](CC(C)C)N(C)C(=O)[C@@H](C)NC(=O)[C@H](C)NC(=O)[C@H](CC(C)C)N(C)C(=O)[C@H](C(C)C)NC(=O)[C@H](CC(C)C)N(C)C(=O)CN(C)C1=O
6.42	CC[C@@H]1NC(=O)[C@H]([C@@H]2O[C@@H](Sc3cccc(OCc4ccncc4)c3)C[C@H]2C)N(C)C(=O)[C@H](C(C)C)N(C)C(=O)[C@H](CC(C)C)N(C)C(=O)[C@H](CC(C)C)N(C)C(=O)[C@@H](C)NC(=O)[C@H](C)NC(=O)[C@H](CC(C)C)N(C)C(=O)[C@H](C(C)C)NC(=O)[C@H](CC(C)C)N(C)C(=O)CN(C)C1=O
6.16	CC[C@@H]1NC(=O)[C@H]([C@@H]2O[C@@H](Oc3cc(OC)cc(OC)c3)C[C@H]2C)N(C)C(=O)[C@H](C(C)C)N(C)C(=O)[C@H](CC(C)C)N(C)C(=O)[C@H](CC(C)C)N(C)C(=O)[C@@H](C)NC(=O)[C@H](C)NC(=O)[C@H](CC(C)C)N(C)C(=O)[C@H](C(C)C)NC(=O)[C@H](CC(C)C)N(C)C(=O)CN(C)C1=O
5.03	CC[C@@H]1NC(=O)[C@H]([C@@H]2OC(OCCC(=O)OC)C[C@H]2C)N(C)C(=O)[C@H](C(C)C)N(C)C(=O)[C@H](CC(C)C)N(C)C(=O)[C@H](CC(C)C)N(C)C(=O)[C@@H](C)NC(=O)[C@H](C)NC(=O)[C@H](CC(C)C)N(C)C(=O)[C@H](C(C)C)NC(=O)[C@H](CC(C)C)N(C)C(=O)CN(C)C1=O (stereo partly drawn)
< 5.00	CC[C@@H]1NC(=O)[C@H]([C@@H]2OC(OCCC(=O)O)C[C@H]2C)N(C)C(=O)[C@H](C(C)C)N(C)C(=O)[C@H](CC(C)C)N(C)C(=O)[C@H](CC(C)C)N(C)C(=O)[C@@H](C)NC(=O)[C@H](C)NC(=O)[C@H](CC(C)C)N(C)C(=O)[C@H](C(C)C)NC(=O)[C@H](CC(C)C)N(C)C(=O)CN(C)C1=O (stereo partly drawn)
